In patent publication US20040087561A1, “Treatment of sexual dysfunction” (priority 2000, published 2004):

Experiments:
[1] = tested on: ovariectomised female Sprague Dawley rats; assay: Inhibition of female rat sexual proceptivity by NMB and its antagonism; assay type: in vivo
Method: Ovariectomised female rats (Sprague Dawley, obtained from Charles River, UK) were stereotaxically implanted (coordinates 0.89 mm behind Bregma, 1.3 mm lateral and 2.5 mm vertical) with stainless steel cannulae (6 mm long, O.D. 0.75 mm), held in place with dental cement. Animals were housed in groups of three and returned to a reversed lighting system of 12 h light:dark (lights off 5.00-17.00 h). Correct placement of the cannulae was assessed post-mortem. Rats were used for tests two weeks after ovariectomy (one week after cannulation). The experiments started at least 5 h into the dark period. Forty eight hours before tests, the animals were primed with 5 μg oestradiol benzoate (OB) (s.c, in corn oil) and adapted to the apparatus (in the absence of stimuli animals) for 10 min on 2 consecutive days prior testing. The 10 min test was carried out as previously described. The difference in the percentage of time spent investigating male minus female was calculated, out of the total time spent investigating stimuli.
Progesterone (Prog, 0.5 mg/0.1 ml) was dissolved in corn oil and administered subcutaneously (s.c.), 4 h before test, to induce proceptive behaviour. Compound (1) (15 mg/kg, i.p.) was dissolved in 50% 2-hydroxypropyl-β-cyclodextrin in saline and administered 1 h before the i.c.v. administration. Neuromedin B was obtained from Bachem, UK. It was dissolved in isotonic saline and administered i.c.v. over a 30 sec period, with the aid of a pump set to deliver a flow of 10 μl/min, 10 min before tests. The dosing volume was 5 μl/rat. Each rat received a total amount of 100 ng.
From the present study we can conclude that stimulation of BB1 receptors with an agonist results in inhibition of proceptive behaviour. This inhibitory effect may be prevented by the presence of an antagonist. e.g. Compound (1) In FIG. 5 the bars represent percentage of time spent investigating male, minus the percentage of time spent investigating the female stimuli+SEM, (n=8-12 per group). ***P<0.001 vs progesterone (One-way ANOVA followed by Dunnett's test).

Sprague Dawley male rats [2] = assay: Sexual behaviour of sexually dysfunctional (fluoxetine-treated) male rats; assay type: in vivo, rat; conditions: fluoxetine 20 mg/kg i.p. 3 days (vs vehicle+vehicle); day 4 Compound (1) 15 mg/kg or yohimbine 2 mg/kg i.p. 1 h before test (vs fluoxetine+vehicle)
Method: Sprague Dawley male rats (Charles River, UK) were kept, 4 rats per cage, in a reversed lighting regime (12:12 hours, lights off at 5.00 h), with free access to food and water. The rats were pre-selected by being presented with a receptive female at […], i.e. every third day (haying 2 clear days between presentations) until completing 6-7 trials of baseline determination. The animals showing consistently vigorous behaviour (ejaculatory latencies <300 s) were chosen for further experiments. Animals were treated for 3 consecutive days with either vehicle (water) or fluoxetine (20 mg/kg, i.p., in a 2 ml/kg dosing volume). On the fourth day, the animals treated with water received vehicle (veh+veh) and the animals treated with fluoxetine received one of the three following treatments: Compound (1) (15 mg/kg, dissolved in 50% 2-hydroxypropyl-β-cyclodextrin in saline), vehicle (cyclodextrine), or yohimbine (2 mg/kg dissolved in water). All treatments were administered i.p. in a 1 ml/kg volume, 1 h before tests.
(§1) For all the sexual behaviour tests, the males were placed in an observation arena (50-60 cm diameter), starting 5 hours into the dark cycle and observed under red illumination. Three to 4 minutes after placing the male in the arena, a receptive female (ovariectomised, bearing a 7 mm Silastic implant of oestradiol benzoate) was introduced to the arena and the following parameters noted: Mount Latency: time (in seconds) taken between introduction of female and first mount. A maximum time of 15 minutes (900 seconds) was allowed, and the test terminated if no mounts were recorded within that time (FIG. 16), Ejaculation Latency: time (in seconds) taken from first intromission to ejaculation. A maximum time of 30 minutes (1800 seconds) was given, and the test terminated if ejaculation was not achieved in that time (FIG. 17), Percentage of males achieving ejaculation within 30 minutes was calculated (FIG. 18).
A one-way ANOVA followed by Dunnett's t test was used to compare the fluoxetine+vehicle group and other groups for mount and ejaculatory latencies. Percentage of animals ejaculating was analysed using a Chi-square test followed by Fisher's test. (*: P<0.05, **: P<0.01, ***: P<0.001; n=15-19).

Sprague Dawley male rats [3] = assay: Sexual behaviour of normal (sexually vigorous) male rats; assay type: in vivo, rat; conditions: Compound (1) 15 mg/kg or fluoxetine 20 mg/kg i.p., 1 h before test, vs vehicle
Method: The potentially stimulatory effect of Compound (1) on male sexual behaviour has been tested on sexually vigorous rats. Sprague Dawley male rats (Charles River, UK) were kept, 4 rats per cage, in a reversed lighting regime (12:12 hours, lights off at 5.00 h), with free access to food and water. The rats were pre-selected by being presented with a receptive female at 4 days intervals, i.e. every third day (having 2 clear days between presentations) until completing 6-7 days of baseline determination. The animals showing consistently vigorous behaviour (ejaculatory latencies <300 s) were chosen for further experiments (n=24). Animals were randomised into three groups. All animals received all three treatments following a latin-square design. Treatments were administered once a week, with a baseline test in between treatments (4 days intervals between baseline and test day). Treatments were Compound (1) (15 mg/kg, dissolved in 50% 2-hydroxypropyl-β-cyclodextrin in saline), vehicle, or Fluoxetine (20 mg/kg dissolved in 100% DMSO). All treatments were administered i.p. in a 1 ml/kg volume, 1 h before tests.
as §1, with “11), Intromission Latency: time (in seconds) taken between introduction of female and first intromission (FIG. 12), Number of Mounts: to reach ejaculation. When ejaculation was not reached, the number of mounts was not analyzed, Number of Intromissions: to reach ejaculation. When ejaculation was not reached, the number of intromissions was not analyzed (FIG. 13 is number of mounts+intromissions),” for “16),”, “14), and Refractory Period: time (in seconds) taken from ejaculation to the first mount” for “17), Percentage”, “the next series of sexual activity. In those animals reaching” for “males achieving”, “the test” for “within 30 minutes”, “terminated at the end of the refractory period, as indicated by the first mount of the next sexual cycle” for “calculated”, “15).” for “18).”
A one-way ANOVA followed by Dunnett's t test was used to compare treated vs vehicle groups each day of testing, for all the sexual behaviour parameters. (*P<0.05, **P<0.01; n=15-16).

[4] = tested on: ovariectomised female Sprague Dawley rats; assay: Plasma sexual hormone levels (radioimmunoassay) in ovariectomised female rats; assay type: in vivo, rat; conditions: Compound (1) 3-10 mg/kg 1 h, progesterone 0.5 mg/0.1 ml s.c. 4 h before blood collection; vs vehicle
Method: Ovariectomised adult female Sprague Dawley rats (180-200 g) were housed in groups of 6 in a reversed lighting system of 12 h light:dark (lights off 7.00-19.00 h). They were used for the experiments at least two weeks after ovariectomy. Forty eight hours before tests, the animals were primed with oestradiol benzoate (5 μg/0.1 ml in corn oil, s.c.). Progesterone (0.5 mg/0.1 ml, in corn oil, s.c.) was administered 4 h before blood collection, as a positive control. Compound (1) (3-10 mg/kg, i.p.) was administered in 50% 2-hydroxypropyl-β-cyclodextrin, 1 h prior to blood collection. Blood was collected from the trunk, after decapitation. It was immediately centrifuged (3500 r.p.m., 4° C., 5 min) and the plasmas frozen until assayed for hormonal content, using commercially available radioimmunoassay kits (^125I-labelled hormones) for oestradiol, progesterone, LH, FSH and prolactin.

[5] = tested on: ovariectomised female Sprague Dawley rats; assay: Female rat sexual proceptivity (time investigating male vs female stimulus); assay type: in vivo; conditions: day 1; Compound (1) 15 mg/kg i.p. 1 h before; progesterone 0.5 mg/0.1 ml s.c. 4 h before; vs vehicle, P<0.01
Method: Ovariectomised adult female Sprague Dawley rats (180-200 g, from Charles River) were housed in groups of 6 in a reversed lighting system of 12 h light:dark (lights off 7.00-19.00 h). Two weeks after ovariectomy they were used for sexual activity tests. The experiments started at least 5 h into the dark period.
Tests were carried out in a circular arena of 90 cm diameter, surrounded by a 30 cm high wall. Two small cages with wire-mesh front (15×15 cm) are fixed into the wall such that the front of the cage is <> with the wall and the 2 cages are opposite each other. They contained two stimuli animals: an intact sexually experienced male and a receptive female (ovariectomised, primed with 5 μg oestradiol benzoate dissolved in corn oil and injected subcutaneously 48 hours before the test and with 0.5 mg of progesterone four hours before the test). Sexually naive test and control animals were used. Forty eight hours before the tests, both the test and control animals were primed with 5 μg oestradiol benzoate. For animals used as positive controls, progesterone (0.5 mg/0.1 ml) was dissolved in corn oil and administered subcutaneously (s.c.), 4 h before the test. Test and control animals were introduced one at a time for 10 minute periods into the arena. During the 10 min test, the time that the test or positive control animal spent investigating each stimulus animal was noted. The arena was thoroughly cleaned between animals. The position of the male/female stimuli boxes was randomised between animals, in order to avoid place preference. The difference in the percentage of time spent investigating the male minus the female stimuli was calculated, out of the total time spent investigating stimuli animals.
Compound (1) was dissolved in 100% β-cyclodextrin and then diluted with saline to a final solution of 50% 2-hydroxypropyl-β-cyclodextrin. It was administered intraperitoneally (i.p.) at doses of 3 and 10 mg/kg, in a dosing volume of 1 ml/kg, 1 h before tests. Progesterone (0.5 mg/0.1 ml) was dissolved in corn oil and administered subcutaneously (s.c.), 4 h before test, as a positive control.
Ovariectomised adult female Sprague Dawley rats (180-200 g) were housed in groups of 5 in a reversed lighting system of 12 h light:dark (lights off 5.00-17.00 h). They were used for the experiments at least two weeks after ovariectomy. Forty eight hours before tests, the animals were primed with oestradiol benzoate (5 μg/0.1 ml in corn oil, s.c.). On day 1, progesterone (0.5 mg/0.1 ml, in corn oil, s.c.) was administered to one of the groups 4 h before tests, as a positive control. Compound (1) (15 mg/kg, i.p.) was administered in 50% 2-hydroxypropyl-β-cyclodextrin, 1 h before tests. The test lasted 10 minutes and was carried out as described before. The difference in the percentage of time spent investigating the male minus the female stimuli was calculated, out of the total time spent investigating stimuli animals. Animals were submitted to a test on day 1 and on day 15. From day 2 to 14 the Compound (1) group received a daily injection of the compound (15 mg/kg, i.p.), while both the vehicle and the progesterone groups received an injection of vehicle. On day 15 the test took place again, as described for day 1.
Ovariectomised female rats (Sprague Dawley, obtained from Charles River, UK) were stereotaxically implanted (coordinates 0.89 mm behind Bregma, 1.3 mm lateral and 2.5 mm vertical) with stainless steel cannulae (6 mm long, O.D. 0.75 mm), held in place with dental cement. Animals were housed in groups of three and returned to a reversed lighting system of 12 h light:dark (lights off 5.00-17.00 h). Correct placement of the cannulae was assessed post-mortem. Rats were used for tests two weeks after ovariectomy (one week after cannulation). The experiments started at least 5 h into the dark period. […]

neuromedin B [NMB]
proceptivity in progesterone-treated rats ([1]; NMB 100 ng i.c.v. 10 min before test): significantly reduced proceptivity

CNCCC(Oc1ccc(C(F)(F)F)cc1)c1ccccc1 (stereo not shown) [fluoxetine]
Ejaculation latency (Sprague Dawley male rats [2]): significantly increased | Mount latency (Sprague Dawley male rats [2]): significantly increased | percentage of animals ejaculating (within 30 minutes) (Sprague Dawley male rats [2]): significantly lower | Ejaculation latency (Sprague Dawley male rats [3]): also increased | Intromission latency (Sprague Dawley male rats [3]): significantly increased | Mount latency (Sprague Dawley male rats [3]): significantly increased | Refractory period (Sprague Dawley male rats [3]): also increased | number of mounts and intromissions required to achieve ejaculation (Sprague Dawley male rats [3]): No changes

CC(=O)[C@H]1CC[C@H]2[C@@H]3CCC4=CC(=O)CC[C@]4(C)[C@H]3CC[C@]12C [progesterone, reference compound]
LH plasma levels [4]: significant decrease | progesterone plasma levels [4]: significant increase | percentage of time spent investigating the male stimulus ([1]; progesterone 0.5 mg/0.1 ml s.c. 4 h before test, vs vehicle group): increased the percentage of time spent investigating the male stimulus | effect on proceptivity, day 1 [5]: stimulatory effect on proceptivity
